Experiments:
Phosphodiesterase 4 = Phosphodiesterase 4 (Homo sapiens, UniProt P27815+Q08499+Q07343+Q08493); assay: Inhibitory activity on human eosinophil phosphodiesterase 4.; type: protein assay
U-937 = assay: Arbitary maximal response for cAMP elevation from baseline level was evaluated in Human U-937 cells; type: functional, cell-based
[1] = Compound tested for plasma levels in monkeys dosed at 10 mg/kg, po; type: ADME, organism-based; design: dose 10 mg/kg, route oral; conditions: monkey, in vivo, read-out: Plasma level
Cavia porcellus = assay: Effect on Aerosolized Antigen Induced Airway Obstruction (AAIAO) in guinea pig after oral dose; type: functional
Monkey [2] = assay: Percent Eosinophil inhibition in monkeys at 10 mg/kg oral dose; type: functional; conditions: Cercopithecidae, in Primates
Monkey [3] = assay: Percent cytokine IL-8 inhibition in monkeys at 10 mg/kg oral dose; type: functional; conditions: Cercopithecidae, in Primates
Monkey [4] = assay: Percent cytokine TNF inhibition in monkeys at 10 mg/kg oral dose; type: functional; conditions: Cercopithecidae, in Primates
Monkey [5] = assay: Percent cytokine inhibition in monkeys at 10 mg/kg oral dose; type: functional; conditions: Cercopithecidae, in Primates
[6] = molecular target: Phosphodiesterase 3 (Homo sapiens) (UniProt Q14432+Q13370); assay: Inhibition of PDE3 from human heart at 100 uM; type: protein assay
[7] = molecular target: Phosphodiesterase 1 (Homo sapiens) (UniProt P54750+Q01064+Q14123); assay: Inhibition of Phosphodiesterase 1 from human cardiac ventricle at 10 uM; type: protein assay
[8] = molecular target: cGMP-specific 3',5'-cyclic phosphodiesterase (Homo sapiens) (UniProt O76074); assay: Inhibition of Phosphodiesterase 5 from human corpus cavernosum at 1 uM
[9] = molecular target: cGMP-specific 3',5'-cyclic phosphodiesterase (Homo sapiens) (UniProt O76074); assay: Inhibition of Phosphodiesterase 5 from human corpus cavernosum at 10 uM

Structure (SMILES) | IC50 (Phosphodiesterase 4) | EC50 (U-937) | other results
CCc1nn(C2CCCCC2)c2c1CCN(c1cccc(OC)c1)C2=O | 48 nM | 980 nM | 
COc1ccc(C2CNC(=O)C2)cc1OC1CCCC1 (stereo not drawn) [ROLIPRAM] |  | 1230 nM | concentration [1]: 910 nM; ED50 (Cavia porcellus): 0.6 mg/kg; inhibition in vivo at 10 mg/kg (Monkey [2]): 49.4%; inhibition in vivo at 10 mg/kg (Monkey [3]): 84%; inhibition in vivo at 10 mg/kg (Monkey [4]): 33.4%
CCc1nn(-c2ccc(F)cc2)c2c1CCN(c1cccc(C)c1)C2=O | 270 nM | 780 nM | 
CCc1nn(C2CCCC2)c2c1CCN(c1ccsc1)C2=O | 660 nM | 36 nM | 
CCCCc1nn(-c2ccc(F)cc2)c2c1CCN(c1ccccc1)C2=O | 84700 nM | 13000 nM | 
CCc1nn(C2CCCC2)c2c1CCN(Cc1ccccc1)C2=O | 420 nM | 36 nM | 
CCc1nn(C2CCC2)c2c1CCN(c1cccc(OC)c1)C2=O | 150 nM | 520 nM | 
CCc1nn(C2CCCC2)c2c1CCN(c1cccnc1)C2=O | 160 nM | 17 nM | 
CCc1nn(-c2ccc(F)cc2)c2c1CCN(c1ccc(OC)cc1)C2=O | 6040 nM | 6250 nM | 
CCc1nn(C2CCCC2)c2c1CCN(c1cccc(Cl)c1)C2=O | 39 nM | 41 nM | 
COc1ccc(N2CCc3c(C)nn(-c4ccc(F)cc4)c3C2=O)cc1 | 15700 nM |  | 
CCc1nn(C2CCCC2)c2c1CCN(c1ccccc1C)C2=O | 440 nM | 330 nM | concentration [1]: 280 nM; ED50 (Cavia porcellus): 2 mg/kg; inhibition in vivo at 10 mg/kg (Monkey [2]): 55.2%; inhibition in vivo at 10 mg/kg (Monkey [5]): 82.1%; inhibition [6]: 9%; inhibition [7]: 8%; inhibition [8]: 7%; inhibition [9]: 21%
CCc1nn(-c2ccc(F)cc2)c2c1CCN(c1ccccc1OC)C2=O | 1080 nM | 3210 nM | 
CCc1nn(-c2ccc(F)cc2)c2c1CCN(c1ccccc1)C2=O | 1640 nM | 880 nM | ED50 (Cavia porcellus): 4.3 mg/kg; inhibition [6]: 33%; inhibition [7]: 2%; inhibition [8]: 1%; inhibition [9]: 50%
CCc1nn(C2CCCC2)c2c1CCN(c1cccc(OC)c1)C2=O | 34 nM | 330 nM | 
CCc1nn(-c2ccc(F)cc2)c2c1CCN(c1cccc(OC)c1)C2=O | 490 nM |  | 
CCc1nn(-c2ccc(F)cc2)c2c1CCN(c1ccccc1C)C2=O | 890 nM |  | 
CCc1nn(C2CCCC2)c2c1CCN(c1ccccn1)C2=O | 1640 nM |  | 
CCc1nn(C2CCCC2)c2c1CCN(c1ccccc1)C2=O | 160 nM | 70 nM | 
CCc1nn(-c2ccc(F)cc2)c2c1CCN(c1ccc(C)cc1)C2=O | 2240 nM | 500 nM | 
COc1ccc([C@]2(C#N)CC[C@@H](C(=O)O)CC2)cc1OC1CCCC1 [CILOMILAST] |  | 3630 nM | 
COc1ccc([C@H](Cc2ccncc2)c2ccccc2)cc1OC1CCCC1 [CDP840] | 670 nM | 290 nM | 
CCCc1nn(-c2ccc(F)cc2)c2c1CCN(c1ccc(OC)cc1)C2=O | 84900 nM | 11000 nM | 
COc1ccc(C(=O)Nc2c(Cl)cncc2Cl)cc1OC1CCCC1 |  | 40 nM | 
CCc1nn(C2CCCC2)c2c1CCN(c1cccs1)C2=O | 63 nM | 1 nM | 
CCc1nn(C2CCS(=O)(=O)C2)c2c1CCN(c1cccc(OC)c1)C2=O (stereo not drawn) | 460 nM | 5270 nM | 

Reference: ChEMBL document CHEMBL1131576, “7-Oxo-4,5,6,7-tetrahydro-1H-pyrazolo[3,4-c]pyridines as novel inhibitors of human eosinophil phosphodiesterase” (J Med Chem, 1998)
